Target: DP IV (Sus scrofa, UniProt P22411)
Test: Ki-determination, photometric DP IV assay with substrate GP-4-Nitroanilide
Format: biochemical
Conditions: competitor of GP-4-Nitroanilide, 3.5 nM DP IV, 30° C., pH 7.6 40 mM HEPES
Protocol: In order to measure the inhibition constant Ki a photometric assay was used The test compounds were measured as competitors of the standard substrate GP-4-Nitroanilide. Three different substrate concentrations (0.4 mM to 0.05 mM) were combined with 8 different competitor concentrations (0.5 mM to 2 μM). The reaction was started by addition of 3.5 nM DP IV. Experiments were carried out under standard conditions: 30° C. in pH 7.6 40 mM HEPES (Sigma-Aldrich) buffer. Nitroaniline production was monitored using a HTS 7000+microplate reader (PerkinElmer, Überlingen, Germany). The Ki-values were calculated via non-linear regression using the enzyme kinetic program Grafit 4.016 (Erithacus Ltd, UK).

DP IV, sequence (P22411 whole entry): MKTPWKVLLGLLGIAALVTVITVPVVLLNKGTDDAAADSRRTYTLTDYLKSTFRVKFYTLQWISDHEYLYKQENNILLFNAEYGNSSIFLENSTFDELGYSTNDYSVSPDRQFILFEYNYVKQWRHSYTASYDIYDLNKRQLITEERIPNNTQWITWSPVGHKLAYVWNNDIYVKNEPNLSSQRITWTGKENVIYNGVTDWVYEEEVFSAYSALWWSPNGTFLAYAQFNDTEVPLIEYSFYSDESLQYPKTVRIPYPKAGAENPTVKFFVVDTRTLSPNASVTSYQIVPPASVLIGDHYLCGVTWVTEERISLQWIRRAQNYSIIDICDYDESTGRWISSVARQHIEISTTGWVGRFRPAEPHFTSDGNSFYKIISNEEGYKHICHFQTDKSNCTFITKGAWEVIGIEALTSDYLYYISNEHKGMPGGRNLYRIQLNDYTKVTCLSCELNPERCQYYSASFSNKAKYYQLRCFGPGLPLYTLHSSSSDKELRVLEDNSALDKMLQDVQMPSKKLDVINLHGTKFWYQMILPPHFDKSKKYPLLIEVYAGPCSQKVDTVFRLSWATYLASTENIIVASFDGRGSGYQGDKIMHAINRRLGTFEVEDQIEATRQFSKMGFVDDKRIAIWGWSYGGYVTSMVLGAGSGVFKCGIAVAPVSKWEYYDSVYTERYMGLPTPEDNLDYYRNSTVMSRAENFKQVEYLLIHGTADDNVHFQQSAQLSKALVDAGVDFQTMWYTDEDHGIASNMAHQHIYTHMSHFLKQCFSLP

Question: With `CCC(C)C(N)C(=O)C1CCCC1` (stereo not shown) [Example 1, 1-cyclopentyl-3-methyl-1-oxo-2-pentanaminium chloride] as the compound, how does the Ki read?
Answer: 6.29 µM

From US20050014946A1, “Substituted amino ketone compounds” (priority 2001, published 2005)
